Patent US20260176249A1, “PROTEIN KINASE INHIBITOR, PREPARATION METHOD THEREFOR, AND APPLICATION THEREOF” (SHANDONG LUYE PHARMACEUTICAL CO., LTD., priority 2021, published 2026)
Like-named read-outs stand apart in the source and are kept apart here.

Key:
PLK1 kinase = biological target: T1, PLK1 kinase (Homo sapiens, UniProt P53350); assay: Inhibitory activity on PLK1 kinase; assay type: biochemical; conditions: for Imax: maximum effect caused by the compound at the test concentration
T1 construct: purchased Carnabio (Carna Biosciences) 05-157
T1 sequence (P53350 whole entry): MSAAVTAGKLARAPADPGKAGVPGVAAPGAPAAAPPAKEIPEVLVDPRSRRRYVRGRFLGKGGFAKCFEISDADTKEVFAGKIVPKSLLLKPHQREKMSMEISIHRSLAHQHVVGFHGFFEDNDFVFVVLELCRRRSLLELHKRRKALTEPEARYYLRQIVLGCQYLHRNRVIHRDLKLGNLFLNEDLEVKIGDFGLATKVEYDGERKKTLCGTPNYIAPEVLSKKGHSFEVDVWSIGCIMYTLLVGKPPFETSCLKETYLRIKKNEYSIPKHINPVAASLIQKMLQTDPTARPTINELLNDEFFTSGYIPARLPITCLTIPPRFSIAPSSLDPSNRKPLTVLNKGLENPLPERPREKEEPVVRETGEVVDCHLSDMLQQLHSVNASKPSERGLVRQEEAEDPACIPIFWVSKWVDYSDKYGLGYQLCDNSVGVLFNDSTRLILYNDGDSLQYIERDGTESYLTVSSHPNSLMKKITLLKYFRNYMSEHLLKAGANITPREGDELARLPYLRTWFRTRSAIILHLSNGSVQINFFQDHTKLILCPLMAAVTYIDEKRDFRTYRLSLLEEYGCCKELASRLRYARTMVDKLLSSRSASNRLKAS
Method: Detection solution PerkinElmer #TRF0218-M
Detection instrument PerkinElemer EnVision
a. Using the Echo machine, the compounds to be tested were diluted by 1:3 on a 384-well plate, and the highest concentration was 1 μM, with a total of 10 concentration points, and each concentration was tested in duplicate wells.
b. 5 μL/well of PLK1 kinase and peptide substrate mixture were added to the assay plate (containing controls).
d. The reaction was initiated by adding 5 μL/well of ATP solution;
e. The assay plate was centrifuged at 1000 rpm for about 15 seconds, a film was used to seal the assay plate which was incubated at 23° C. for a period of time;
f. A detection solution was added to all wells of the assay plate;
g. The assay plate was centrifuged at 1000 rpm for approximately 15 seconds, a film was used to seal the assay plate which was incubated at 23° C. for 60 min.
h. The assay plate was read on EnVision. The test results were analyzed using XLFIT5 software.

HCT116 cells = assay: Inhibitory activity on HCT116 cell proliferation (ATPlite); assay type: cell-based; conditions: Homo sapiens
Method: Cell culture medium: RPMI1640+10% FBS (GBICO)
Cell culture plate: 96-well plate (Shanghai Jingan Biotechnology Co., Ltd.)
Detection kit: ATPlite 1step Luminescence (PerkinElmer)
Detection instrument: BioTek multifunctional microplate reader
2. Test method: HCT116 cells in the logarithmic growth phase were seeded into a white-wall clear-bottom 96-well plate at a density of 720 cells per well, and cultured overnight in a 37° C., 5% CO2 incubator. […] After adding the drug, culturing was continued for 72 h in a 37° C., 5% CO2 incubator.
GraphPad Prism 7.0 was used to process the data, the cell inhibition rate curve was obtained and IC50 was calculated.

[1] = Metabolic stability in mouse liver microsomes; assay type: in vitro ADME
Method: (§1) a. Preparation of phosphate buffer: The phosphate buffer powder was dissolved in 100 mL of pure water to prepare a phosphate buffer solution with a pH of 7.4 and a concentration of 100 mM, which was stored in a 4° C. refrigerator for later use.
(§2) b. All samples as well as the reference testosterone were dissolved in DMSO to obtain a 10 mM stock solution. The 10 mM stock solution was diluted to 100 μM with acetonitrile to obtain a working solution for later use.
(§3) c. Preparation of liver microsome working solution: Each of the mouse, rat and human liver microsome stock solutions (at concentration of 20 mg/mL) was taken and diluted to 0.56 mg/mL with 100 mM phosphate buffer solution to obtain the liver microsome working solution.
(§4) d. Preparation of solution: An appropriate amount of MgCl2 was weighed and used to prepare a MgCl2 solution at a concentration of 60 mM using 100 mM phosphate buffer solution. An appropriate amount of NADPH was weighed and used to prepare a NADPH solution at a concentration of 20 mM using 100 mM phosphate buffer solution. An equal volume of 60 mM MgCl2 solution was added to prepare an NADPH working solution containing 10 mM NADPH and 30 mM MgCl2. An acetonitrile solution containing 20 ng/mL tolbutamide was prepared as the stop solution.
(§5) e. Liver microsome incubation: 2 μL of each compound and the positive drug testosterone working solution were added to 178 μL of liver microsome working solution (0.56 mg/mL), mixed gently, and pre-incubated in a vibrating constant temperature water bath pot at 37° C. for 10 min. After adding 20 μL of NADPH working solution, the mixture was placed in a vibrating constant temperature water bath pot at 37° C. and timed incubation was started for 5, 10, 20, 30 and 60 min.
(§6) f. Stopping reaction: After the corresponding time of incubation, 400 μL of stop solution was added to stop the reaction, and then the sample was immediately shaken for 1 min. The sample was centrifuged at 13500 rpm for 10 min at 10° C. After centrifugation, the supernatant was removed, diluted with water according to the needs of each compound, and analyzed by LC-MS. For the 0-minute sample, the stop solution was first added and mixed evenly with the liver microsomes, and then the NADPH working solution was added. For the negative control sample, 20 μL of 30 mM MgCl2 solution was added instead of the NADPH working solution.
(§7) T1/2 and CLint(mic) were calculated by the following formula.
(§8) [formula] [formula] • CLint(mic)=0.693/T1/2/liver microsomal protein concentration during incubation (mg/mL) • CLint(ver)=CLint(mic)*liver microsomal protein (mg)/liver weight (g)*liver weight to body weight ratio
(§9) Liver microsomal protein (mg)/liver weight (g): the value is 45 in both animal and human species.
(§10) Liver weight to body weight ratio: the parameters for mice, rats and humans are 88, 40 and 20 g/kg respectively.

[2] = Metabolic stability in rat liver microsomes; assay type: in vitro ADME
Method: as §1, §2, §3, §4, §5, §6, §7, §8, §9, §10

[3] = Metabolic stability in human liver microsomes; assay type: in vitro ADME
Method: as §1, §2, §3, §4, §5, §6, §7, §8, §9, §10

For `CN1CCN(c2ccc(OC(F)(F)F)c(Nc3ncc4ccc5c(C(=O)NO)nn(CCF)c5c4n3)c2)CC1` [Compound 25], the IC50 (PLK1 kinase) was 1.12 nM and the Imax (PLK1 kinase) was 100.23%.

Compound `CCn1nc(C(N)=O)c2ccc3cnc(Nc4cc(N5CCN(C)CC5)ccc4OC(F)(F)F)nc3c21` [Compound 29] has an IC50 (HCT116 cells; HCT-116, 72 h) of 77 nM.

`C[C@@H](Oc1cc(-n2cnc3ccc(CN4CCN(C)CC4)cc32)sc1C(N)=O)c1ccccc1C(F)(F)F` [GSK461364, reference compound] gave an Imax (PLK1 kinase) of 101.08%.

With `CN1CCN(c2ccc(OC(F)(F)F)c(Nc3ncc4c(n3)-c3c(c(C(N)=O)nn3CCO)N(C)C4)c2)CC1` [Compound 5] the IC50 (HCT116 cells; HCT-116, HCT116 cells, 72 h, read-out: IC50) was 924 nM, the IC50 (PLK1 kinase; PLK1 kinase, highest concentration 1 μM, 10 points, read-out: IC50) was 73.3 nM and the Imax (PLK1 kinase) was 76.81%.

With `CN1CCN(c2ccc(OC(F)(F)F)c(Nc3ncc4ccc5c(C(=O)NO)nn(CCO)c5c4n3)c2)CC1` [Compound 19] the “60 min remaining amount” value [1] was 22.0%, the Clearance rate [1] was “Medium” and the CLint scaled at 1 µM ([1]; pH 7.4) was 192 mL/min/kg. For the same compound, the half-life at 1 µM ([1]; pH 7.4) was 28.5 min, the microsomal CLint at 1 µM ([1]; pH 7.4, read-out: CLint(mic)) was 48.6 µL/min/mg and the IC50 (HCT116 cells; HCT-116, 72 h) was 96 nM. The “60 min remaining amount” value [2] was 11.9%, the Clearance rate [2] was “Medium” and the CLint scaled at 1 µM ([2]; pH 7.4) was 127 mL/min/kg. It also gave a half-life at 1 µM ([2]; pH 7.4) of 19.6 min, a microsomal CLint at 1 µM ([2]; pH 7.4, read-out: CLint(mic)) of 70.8 µL/min/mg and an IC50 (PLK1 kinase) of 1.06 nM. The Imax (PLK1 kinase) was 99.97%, the “60 min remaining amount” value [3] was 51.9% and the Clearance rate [3] was “Medium”. The CLint scaled at 1 µM ([3]; pH 7.4) was 19.6 mL/min/kg, the half-life at 1 µM ([3]; pH 7.4) was 63.6 min and the microsomal CLint at 1 µM ([3]; pH 7.4, read-out: CLint(mic)) was 21.8 µL/min/mg.

Compound `CN1CCN(c2ccc(OC(F)(F)F)c(Nc3ncc4ccc5c(C(=O)NOCCO)nn(CCF)c5c4n3)c2)CC1` [Compound 30] has an IC50 (PLK1 kinase) of 0.776 nM and an Imax (PLK1 kinase) of 99.97%.

For `CN1CCN(c2ccc(OC(F)(F)F)c(Nc3ncc4ccc5c(C(=O)NOCCO)nn(CCO)c5c4n3)c2)CC1` [Compound 31], the IC50 (PLK1 kinase) was 1.55 nM and the Imax (PLK1 kinase) was 99.54%.
